In patent publication US20190211020A1 (Agency for Science, Technology and Research, priority 2012, published 2019):

tested on: eIF4E Ser209 phosphorylation in Hela cells; assay: MNK cell-based assay (AlphaScreen SureFire, eIF4E Ser209 phosphorylation); settings: Homo sapiens, HeLa, 2 h, read-out: IC50 Hela
Source text: It has been reported that Ser209 of eIF4E is solely phosphorylated by the MNK enzymes. The ability of compounds to inhibit this process in Hela cells was investigated using the AlphaScreen SureFire® assay platform from Perkin Elmer (Waltham, Mass.). eIF4E phosphorylated on Ser209 is recognized by two antibodies, the first which is fused to a streptavidin coated donor bead binds to an epitope away from Ser209, the second which is fused to a protein A conjugated acceptor bead binds to phosphorylated Ser209. The phosphorylation of eIF4E on Ser209 brings the two antibodies into close proximity and when excited by a laser a singlet oxygen is released by the donor bead which excites the acceptor bead resulting in the emission of light. This enables the monitoring of eIF4E Ser209 phosphorylation and its inhibition in a cellular context.
Hela cells were seeded into microtitre plates (30,000 cells per well) in 100 μl of culture medium and incubated at 37° C. for 24 hours. The media was then removed by aspiration and the cells resuspended in 50 μl of serum free medium containing the test compound and incubated at 37° C. for 2 hours. The culture medium was again removed by aspiration and the cells resuspended in lysis buffer (provided in Perkin Elmer SureFire® Assay Kit). After agitation at 350 rpm for 20 minutes at 22° C., 4 μl was transferred to a 384 well OptiPlate™ (Perkin Elmer, Waltham, Mass.). To each well was added 5 μl of acceptor mix; the plate was sealed and agitated gently at 22° C. for 2 hours. Then, in subdued light, 2 μl of donor mix was added to each well, the plate was sealed, wrapped in aluminum foil and agitated gently at 22° C. for 2 hours. Emission was measured using the EnVision® plate reader (Perkin Elmer, Waltham, Mass.).
Inhibition constants (IC50) were determined by plotting AlphaScreen signal versus log compound concentration and fitting with a non-linear regression algorithm using GraphPad Prism (GraphPad Software Inc.).

Row | SMILES | IC50
1 | Cc1cc2ncc(-c3ccc(C#N)cc3)n2cc1-c1ccc(C(=O)N2CCC(C)(N)CC2)cc1 [Example 137, 4-(6-(4-(4-amino-4-methylpiperidine-1-carbonyl)phenyl)-7-methylimidazo[1,2-a]pyridin-3-yl)benzonitrile] | < 1 µM

same assay, conditions: Homo sapiens; eIF4E Ser209 phosphorylation, Hela cells, 2 hours; read-out: IC50 Hela

Row | SMILES | IC50
2 | N#Cc1ccc(-c2cnc3ccc(-c4ccc(C(=O)NCC(=O)N5CCOCC5)cc4)cn23)cc1 [Example 115, 4-(3-(4-cyanophenyl)imidazo[1,2-a]pyridin-6-yl)-N-(2-morpholino-2-oxoethyl)benzamide] | < 1 µM
3 | N#Cc1ccc(-c2cnc3ccc(-c4ccc(C(=O)NCCN5CCOCC5)cc4)cn23)cc1 [Example 116, 4-(3-(4-cyanophenyl)imidazo[1,2-a]pyridin-6-yl)-N-(2-morpholinoethyl)benzamide] | < 1 µM
4 | N#Cc1ccc(-c2cnc3ccc(-c4ccc(C(=O)N5CCC6(CCCCN6)CC5)cc4)cn23)cc1 [Example 117, 4-(6-(4-(1,9-diazaspiro[5.5]undecane-9-carbonyl)phenyl)imidazo[1,2-a]pyridin-3-yl)benzonitrile] | < 1 µM
5 | CC(=O)N1CCCCC12CCN(C(=O)c1ccc(-c3ccc4ncc(-c5ccc(C#N)cc5)n4c3)cc1)CC2 [Example 118, 4-(6-(4-(1-acetyl-1,9-diazaspiro[5.5]undecane-9-carbonyl)phenyl)imidazo[1,2-a]pyridin-3-yl)benzonitrile] | < 1 µM
6 | CN1CCCCC12CCN(C(=O)c1ccc(-c3ccc4ncc(-c5ccc(C#N)cc5)n4c3)cc1)CC2 [Example 119, 4-(6-(4-(1-methyl-1,9-diazaspiro [5.5]undecane-9-carbonyl)phenyl)imidazo[1,2-a]pyridin-3-yl)benzonitrile] | < 1 µM
7 | CN(C(=O)c1ccc(-c2ccc3ncc(-c4ccc(C#N)cc4)n3c2)cc1)c1ccncc1 [Example 122, 4-(3-(4-cyanophenyl)imidazo[1,2-a]pyridin-6-yl)-N-methyl-N-(pyridin-4-yl)benzamide] | < 1 µM
8 | N#Cc1ccc(-c2cnc3ccc(-c4ccc(C(=O)N5CCC(CCN)CC5)cc4)cn23)cc1 [Example 124, 4-(6-(4-(4-(2-aminoethyl)piperidine-1-carbonyl)phenyl)imidazo[1,2-a]pyridin-3-yl)benzonitrile] | < 1 µM
9 | N#Cc1ccc(-c2cnc3ccc(-c4ccc(C(=O)N5CCN(C(=O)c6ccccc6)CC5)cc4)cn23)cc1 [Example 126, 4-(6-(4-(4-benzoylpiperazine-1-carbonyl)phenyl)imidazo[1,2-a]pyridin-3-yl)benzonitrile] | < 1 µM
10 | N#Cc1ccc(-c2cnc3ccc(-c4ccc(C(=O)N5CCN(Cc6ccc(C(N)=O)cc6)CC5)cc4)cn23)cc1 [Example 129, 4-((4-(4-(3-(4-cyanophenyl)imidazo[1,2-a]pyridin-6-yl)benzoyl)piperazin-1-yl)methyl)benzamide] | < 1 µM
11 | N#Cc1ccc(-c2cnc3ccc(-c4ccc(C(=O)N5CCC(N6CCOCC6)CC5)cc4)cn23)cc1 [Example 134, 4-(6-(4-(4-morpholinopiperidine-1-carbonyl)phenyl)imidazo[1,2-a]pyridin-3-yl)benzonitrile] | < 1 µM
12 | Cc1nnc(C2(C)CCN(C(=O)c3ccc(-c4ccc5ncc(-c6ccc(C#N)cc6)n5c4)cc3)CC2)o1 [Example 135, 4-(6-(4-(4-methyl-4-(5-methyl-1,3,4-oxadiazol-2-yl)piperidine-1-carbonyl)phenyl)imidazo [1,2-a]pyridin-3-yl)benzonitrile] | < 1 µM
13 | CC1(N2CCOCC2)CCN(C(=O)c2ccc(-c3ccc4ncc(-c5ccc(C#N)cc5)n4c3)cc2)CC1 [Example 163, 4-(6-(4-(4-methyl-4-morpholinopiperidine-1-carbonyl)phenyl)imidazo [1,2-a]pyridin-3-yl)benzonitrile] | < 1 µM

Results, then the molecule that gave them:

Row | IC50 | SMILES
14 | < 1 µM | N#Cc1ccc(-c2cnc3ccc(-c4ccc(C(=O)N5CCC(CN)CC5)cc4)cn23)cc1 [Example 123, 4-(6-(4-(4-(aminomethyl)piperidine-1-carbonyl)phenyl)imidazo[1,2-a]pyridin-3-yl)benzonitrile]
15 | < 1 µM | CN1CCN(C(=O)c2ccc(-c3ccc4ncc(-c5ccc(C#N)cc5)n4c3)cc2)CC1=O [Example 130, 4-(6-(4-(4-methyl-3-oxopiperazine-1-carbonyl)phenyl)imidazo[1,2-a]pyridin-3-yl)benzonitrile]
16 | < 1 µM | Cc1cc2ncc(-c3ccc(C#N)cc3)n2cc1-c1ccc(C(=O)N2CCN(C)CC2)cc1 [Example 138, 4-(7-methyl-6-(4-(4-methylpiperazine-1-carbonyl)phenyl)imidazo[1,2-a]pyridin-3-yl)benzonitrile]
17 | < 1 µM | CN1CCN(C(=O)c2ccc(-c3ccc4ncc(-c5ccc(C#N)cc5)n4c3)c(F)c2)CC1 [Example 140, 4-(6-(2-fluoro-4-(4-methylpiperazine-1-carbonyl)phenyl)imidazo [1,2-a]pyridin-3-yl)benzonitrile]
18 | < 1 µM | CN1CCN(C(=O)c2ccc(-c3ccc4ncc(-c5ccc(C#N)cc5)n4c3)cc2Cl)CC1 [Example 141, 4-(6-(3-chloro-4-(4-methylpiperazine-1-carbonyl)phenyl)imidazo[1,2-a]pyridin-3-yl)benzonitrile]
19 | < 1 µM | CN1CCN(C(=O)c2ccc(-c3ccc4ncc(-c5ccc(C#N)cc5)n4c3)cc2F)CC1 [Example 142, 4-(6-(3-fluoro-4-(4-methylpiperazine-1-carbonyl)phenyl)imidazo[1,2-a]pyridin-3-yl)benzonitrile]
20 | < 1 µM | CN1CCN(C(=O)c2ccc(-c3ccc4ncc(-c5ccc(C#N)cc5)n4c3)cc2C(F)(F)F)CC1 [Example 145, 4-(6-(4-(4-methylpiperazine-1-carbonyl)-3-(trifluoromethyl)phenyl)imidazo[1,2-a]pyridin-3-yl)benzonitrile]
21 | < 1 µM | CN1CCN(C(=O)c2ccc(-c3ccc4ncc(-c5ccc(C#N)cc5)n4c3)cc2N)CC1 [Example 146, 4-(6-(3-amino-4-(4-methylpiperazine-1-carbonyl)phenyl)imidazo [1,2-a]pyridin-3-yl)benzonitrile]
22 | < 1 µM | CN1CCN(C(=O)c2ccc(-c3ccc4ncc(-c5ccc(C#N)cc5)n4c3)cc2N(C)C)CC1 [Example 147, 4-(6-(3-(dimethylamino)-4-(4-methylpiperazine-1-carbonyl)phenyl)imidazo[1,2-a]pyridin-3-yl)benzonitrile]
23 | < 1 µM | CC(=O)Nc1cc(-c2ccc3ncc(-c4ccc(C#N)cc4)n3c2)ccc1C(=O)N1CCN(C)CC1 [Example 149, N-(5-(3-(4-cyanophenyl)imidazo[1,2-a]pyridin-6-yl)-2-(4-methylpiperazine-1-carbonyl)phenyl)acetamide]
24 | < 1 µM | CNc1cc(-c2ccc3ncc(-c4ccc(C#N)cc4)n3c2)ccc1C(=O)N1CCN(C)CC1 [Example 150, 4-(6-(3-(methylamino)-4-(4-methylpiperazine-1-carbonyl)phenyl)imidazo [1,2-a]pyridin-3-yl)benzonitrile]
25 | < 1 µM | CNc1cc(-c2ccc3ncc(-c4ccc(C#N)cc4)n3c2)ccc1C(=O)N1CCOCC1 [Example 151, 4-(6-(3-(methylamino)-4-(morpholine-4-carbonyl)phenyl)imidazo[1,2-a]pyridin-3-yl)benzonitrile]
26 | < 1 µM | CN1CCN(C(=O)c2ccc(-c3ccc4ncc(-c5ccc(C#N)cc5)n4c3)c(Cl)c2)CC1 [Example 153]
27 | < 1 µM | Cc1cc(-c2ccc3ncc(-c4ccc(C#N)cc4)n3c2)ccc1C(=O)N1CCOCC1 [Example 156]
28 | < 1 µM | CN1CCN(C(=O)c2ccc(-c3ccc4ncc(-c5ccc(C#N)cc5)n4c3)cc2OC(F)(F)F)CC1 [Example 157]
29 | < 1 µM | COc1cc(-c2ccc3ncc(-c4ccc(C#N)cc4)n3c2)ccc1C(=O)N1CCOCC1 [Example 158]
30 | < 1 µM | N#Cc1ccc(-c2cnc3ccc(-c4ccc(C(=O)N5CCNCC5)c(O)c4)cn23)cc1 [Example 159, 4-(6-(3-hydroxy-4-(piperazine-1-carbonyl)phenyl)imidazo[1,2-a]pyridin-3-yl)benzonitrile]
31 | < 1 µM | N#Cc1ccc(-c2cnc3ccc(-c4ccc(C(=O)N5CCOCC5)c(N5CCOCC5)c4)cn23)cc1 [Example 160, 4-(6-[3-(morpholin-4-yl)-4-(morpholin-4-ylcarbonyl)phenyl]imidazo[1,2-a]pyridin-3-yl)benzonitrile]
32 | < 1 µM | N#Cc1ccc(-c2cnc3ccc(-c4ccc(C(=O)N5CCOCC5)c(F)c4)cn23)cc1 [Example 162, 4-(6-(3-fluoro-4-(morpholine-4-carbonyl)phenyl)imidazo [1,2-a]pyridin-3-yl)benzonitrile]

same assay, conditions: eIF4E Ser209 phosphorylation, Hela cells, 2 hours; read-out: IC50 Hela

Row | SMILES | IC50
33 | CN1CCN(C(=O)c2ccc(-c3ccc4ncc(-c5ccc(C#N)cc5)n4c3)cc2O)CC1 [Example 143] | < 1 µM
34 | CN1CCN(C(=O)c2ccc(-c3ccc4ncc(-c5ccc(C#N)cc5)n4c3)c(O)c2)CC1 [Example 144] | < 1 µM
